Data reported in patent US8603989B2, “Method for treating and preventing kidney stones employing an SGLT2 inhibitor and composition containing same” (Bristol-Myers Squibb Company, priority 2008, dated 2013).

What was measured:
[1] = test system: human SGLT2 (hSGLT2) relative to human SGLT1 (hSGLT1); details: ratio of EC50 in favor of SGLT2
Description: Selectivity for SGLT2 of a given inhibitor can be determined by comparing the EC50 values measured in the SGLT1 and SGLT2 assay. […] Cells expressing hSGLT1 or hSGLT2 were maintained using standard cell culture techniques. Assays for sodium-dependent glucose transport in 96-well plates were initiated by adding 100 μl/well of protein-free assay buffer containing sodium (Hepes/Tris pH 7.4, 137 mM NaCl, 5.4 mM KCl, 2.8 mM CaCl2, 1.2 mM MgSO4), 10 μM ^14C-AMG and inhibitor or dimethyl sulfoxide (DMSO) vehicle, and plates were incubated for 2 h at 37° C. Sodium-dependent ^14C-AMG uptake was calculated by subtracting the counts per minute (CPM) observed under sodium-free uptake conditions from the counts observed under sodium-containing conditions. Inhibitors were assayed at various concentrations in triplicate in the presence of sodium, and the percent inhibition was calculated by comparing CPM in inhibitor-containing wells with CPM in wells containing only DMSO vehicle. Phlorizin, a known SGLT inhibitor, was evaluated in parallel in every assay. A dose-response curve was fitted to an empirical four-parameter model using XL Fit (IDBS, Guilford, UK) to determine the inhibitor concentration at half-maximal response (EC50). SGLT2 selectivity is represented as a ratio of EC50 in favor of SGLT2.

[2] = test system: diabetic patients; assay: 12-week treatment of diabetic patients: urine glucose, HbA1c, urine volume (Table 5); assay type: in vivo, human
[3] = test system: patients with diabetes; details: patients with diabetes, 5, 25 or 100 mg
Source text: The levels of urine glucose of all subjects are shown in the plot and the mean urine glucose is in the darker lines.

[4] = test system: type 2 diabetic patients
Source text: C-aryl glucoside SGLT2 inhibitors are known to reduce blood glucose levels in diabetic patients, see U.S. Pat. No. 6,774,112, which is incorporated herein by reference in its entirety, but not known to increase urine volume. […] Metformin reduces plasma glucose concentration by non-renal mechanisms and is not known to induce glucosuria. […] On day 1 and day 14, the patients were examined for the levels of glucosuria and changes in urine volumes.

[5] = test system: healthy subjects; details: healthy subjects, 5, 20, 50 or 100 mg, within 24 hours, indirect comparison
[6] = 2.5-50 mg, after 12 weeks of treatment

CCOc1ccc(Cc2cc([C@@H]3O[C@H](CO)[C@@H](O)[C@H](O)[C@H]3O)ccc2Cl)cc1 [dapagliflozin]
selectivity for SGLT2 relative to SGLT1 [1]: High selectivity for SGLT2

CN(C)C(=N)N=C(N)N [Metformin, reference compound]
HbA1c reduction from baseline ([2]; 1500 mg metformin, 12 weeks): 0.73%

CCOc1ccc(Cc2cc([C@@H]3O[C@H](CO)[C@@H](O)[C@H](O)[C@H]3O)ccc2Cl)cc1 [dapagliflozin PGS, dapagliflozin (S)-propylene glycol solvate]
urine glucose excretion compared to placebo [3]: higher | fasting serum glucose (FSG) levels ([4]; two-week period): Dose-dependent reduction | postprandial glucose levels in oral glucose tolerance tests (OGTT) ([4]; two-week period): reduced | urine volumes ([4]; two-week period): no increase | urinary glucose levels within a 24-hour time period ([4]; versus placebo, FIG. 3): increased | OGT [2, 6]: improved | reduced HbAlC levels [2, 6]: 0.71-0.9% | glucosuric effect, loss of calories in the urine as compared to GSK 869,682 [5]: significant loss of calories in the urine
